For test [1], the target named is T1, Oxysterols receptor LXR-alpha (Homo sapiens, UniProt Q13133).
T1 sequence (Q13133 whole entry): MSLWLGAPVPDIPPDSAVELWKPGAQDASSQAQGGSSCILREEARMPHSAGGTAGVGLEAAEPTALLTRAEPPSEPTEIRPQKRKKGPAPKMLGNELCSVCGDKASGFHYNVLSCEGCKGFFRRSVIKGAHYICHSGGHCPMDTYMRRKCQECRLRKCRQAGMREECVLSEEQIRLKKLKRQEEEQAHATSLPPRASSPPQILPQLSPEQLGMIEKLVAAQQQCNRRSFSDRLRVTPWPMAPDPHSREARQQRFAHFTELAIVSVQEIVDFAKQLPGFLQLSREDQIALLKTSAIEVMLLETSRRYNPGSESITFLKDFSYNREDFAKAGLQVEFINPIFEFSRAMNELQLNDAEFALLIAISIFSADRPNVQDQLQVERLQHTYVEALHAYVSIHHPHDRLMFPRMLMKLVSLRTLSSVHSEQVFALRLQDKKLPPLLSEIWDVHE
Type of test: functional.

Test [2] deals with T2, Bile acid receptor (Homo sapiens, UniProt Q96RI1).
T2 sequence (Q96RI1 whole entry): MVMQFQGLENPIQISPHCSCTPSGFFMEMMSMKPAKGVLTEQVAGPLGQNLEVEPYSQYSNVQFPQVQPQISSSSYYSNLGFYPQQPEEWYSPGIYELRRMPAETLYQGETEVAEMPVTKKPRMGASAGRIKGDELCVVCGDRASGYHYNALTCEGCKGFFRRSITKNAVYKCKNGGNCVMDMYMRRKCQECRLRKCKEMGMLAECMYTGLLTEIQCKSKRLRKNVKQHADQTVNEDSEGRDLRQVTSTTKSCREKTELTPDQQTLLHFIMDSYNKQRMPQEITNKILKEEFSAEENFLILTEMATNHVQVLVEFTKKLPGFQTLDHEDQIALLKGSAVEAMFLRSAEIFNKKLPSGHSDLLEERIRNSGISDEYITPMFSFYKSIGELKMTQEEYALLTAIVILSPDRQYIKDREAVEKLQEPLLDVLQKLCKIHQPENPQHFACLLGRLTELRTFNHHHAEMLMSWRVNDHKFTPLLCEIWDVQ
Type of test: functional.

In test [3] the target is T3, Peroxisome proliferator-activated receptor alpha (Homo sapiens, UniProt Q07869).
T3 sequence (Q07869 whole entry): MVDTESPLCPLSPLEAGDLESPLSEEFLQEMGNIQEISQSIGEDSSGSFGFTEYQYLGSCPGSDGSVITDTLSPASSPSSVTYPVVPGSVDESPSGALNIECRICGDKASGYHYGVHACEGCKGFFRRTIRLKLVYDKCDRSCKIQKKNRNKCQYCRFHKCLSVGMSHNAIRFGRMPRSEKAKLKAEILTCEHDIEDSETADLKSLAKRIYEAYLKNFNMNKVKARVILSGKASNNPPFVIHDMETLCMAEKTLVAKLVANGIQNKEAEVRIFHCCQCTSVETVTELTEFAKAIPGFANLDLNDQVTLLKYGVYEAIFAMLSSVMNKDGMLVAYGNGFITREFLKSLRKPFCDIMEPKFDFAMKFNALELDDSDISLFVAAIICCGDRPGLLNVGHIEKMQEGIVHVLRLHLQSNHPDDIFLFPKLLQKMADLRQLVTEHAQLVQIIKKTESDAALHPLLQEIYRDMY
Type of test: functional.

The target in test [4] is T3, Peroxisome proliferator-activated receptor alpha. Type of test: functional. This is another data set of the same source.
The target of test [5] is T4, Retinoic acid receptor alpha (Homo sapiens, UniProt P10276).
T4 sequence (P10276 whole entry): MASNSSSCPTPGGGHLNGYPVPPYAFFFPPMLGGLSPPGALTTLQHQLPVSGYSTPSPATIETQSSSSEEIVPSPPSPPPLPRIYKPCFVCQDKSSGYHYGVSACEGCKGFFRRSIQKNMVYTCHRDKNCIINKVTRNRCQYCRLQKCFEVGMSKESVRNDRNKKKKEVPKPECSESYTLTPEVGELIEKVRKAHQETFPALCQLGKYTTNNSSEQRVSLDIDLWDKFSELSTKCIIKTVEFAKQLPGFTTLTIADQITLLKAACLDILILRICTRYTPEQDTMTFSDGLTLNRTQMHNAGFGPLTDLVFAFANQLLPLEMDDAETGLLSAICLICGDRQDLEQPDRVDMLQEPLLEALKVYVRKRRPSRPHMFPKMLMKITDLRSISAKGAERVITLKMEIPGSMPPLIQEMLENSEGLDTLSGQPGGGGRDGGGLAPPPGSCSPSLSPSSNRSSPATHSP
Type of test: functional, cell-based.

Test [6] addresses T5, Retinoic acid receptor beta (Homo sapiens, UniProt P10826).
T5 sequence (P10826 whole entry): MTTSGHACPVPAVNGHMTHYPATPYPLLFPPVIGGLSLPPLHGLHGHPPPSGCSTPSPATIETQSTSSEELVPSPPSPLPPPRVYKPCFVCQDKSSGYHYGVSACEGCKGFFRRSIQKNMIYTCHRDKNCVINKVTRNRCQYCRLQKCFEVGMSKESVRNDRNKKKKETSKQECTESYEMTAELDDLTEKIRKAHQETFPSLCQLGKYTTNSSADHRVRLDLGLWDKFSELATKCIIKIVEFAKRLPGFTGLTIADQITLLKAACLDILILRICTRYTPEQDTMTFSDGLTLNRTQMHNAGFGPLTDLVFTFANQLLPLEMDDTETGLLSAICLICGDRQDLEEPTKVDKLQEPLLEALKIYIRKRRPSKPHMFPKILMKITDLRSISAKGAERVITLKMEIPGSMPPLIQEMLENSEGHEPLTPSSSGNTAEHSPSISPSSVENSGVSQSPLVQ
Type of test: functional, cell-based.

Test [7] deals with T6, Retinoic acid receptor gamma (Homo sapiens, UniProt P13631).
T6 sequence (P13631 whole entry): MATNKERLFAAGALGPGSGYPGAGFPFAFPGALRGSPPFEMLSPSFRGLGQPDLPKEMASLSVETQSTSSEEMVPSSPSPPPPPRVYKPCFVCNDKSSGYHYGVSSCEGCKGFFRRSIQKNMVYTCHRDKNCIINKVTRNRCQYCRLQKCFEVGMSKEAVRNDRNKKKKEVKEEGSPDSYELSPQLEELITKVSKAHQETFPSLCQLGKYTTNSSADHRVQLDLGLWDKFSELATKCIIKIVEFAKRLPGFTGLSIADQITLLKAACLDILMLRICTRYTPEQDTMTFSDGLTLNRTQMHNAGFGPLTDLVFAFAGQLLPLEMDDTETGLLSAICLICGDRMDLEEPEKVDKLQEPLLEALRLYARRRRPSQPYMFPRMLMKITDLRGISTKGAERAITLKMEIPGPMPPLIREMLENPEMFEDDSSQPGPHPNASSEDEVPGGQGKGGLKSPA
Type of test: functional, cell-based.

In test [8] the target is Hydroxycarboxylic acid receptor 2 (Homo sapiens, UniProt Q8TDS4).

Molecules are shown by their SMILES.
Note: assay procedure not described here.

Sequence of Hydroxycarboxylic acid receptor 2 (Q8TDS4 whole entry): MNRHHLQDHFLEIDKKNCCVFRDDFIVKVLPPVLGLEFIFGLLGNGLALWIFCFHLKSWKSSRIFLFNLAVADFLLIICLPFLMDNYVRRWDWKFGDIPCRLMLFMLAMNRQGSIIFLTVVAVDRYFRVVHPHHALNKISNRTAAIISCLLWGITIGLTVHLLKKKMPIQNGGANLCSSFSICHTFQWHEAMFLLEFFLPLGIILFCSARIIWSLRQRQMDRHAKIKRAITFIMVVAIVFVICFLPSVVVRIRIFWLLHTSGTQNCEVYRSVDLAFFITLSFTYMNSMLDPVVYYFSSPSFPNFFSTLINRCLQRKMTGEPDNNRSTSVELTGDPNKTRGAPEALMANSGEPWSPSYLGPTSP

On to `CC(/C=C1\SC(=S)N(CC(=O)O)C1=O)=C\c1ccccc1`, for which the AC50 in test [1], in test [2], in test [3], in test [4], in test [5] and in test [6] was more than 30 µM each time. Also, in test [7], the AC50 is more than 30 µM.

For `CC1(C)S[C@@H]2[C@H](NC(=O)[C@H](N)c3ccc(O)cc3)C(=O)N2[C@H]1C(=O)O` [AMOXICILLIN], the AC50 in test [1] is 19 µM; in test [2], more than 30 µM; in test [3] it was more than 30 µM; in test [4], more than 30 µM; in test [5] it was more than 30 µM; in test [6] it was 18 µM. Also, in test [7], the activity was half-maximal at 9.1 µM (AC50).

Consider `Clc1cccc(Cl)c1N=C1NCCN1` [CLONIDINE], for which the AC50 in test [8] was more than 10 µM.

In test [8], `COc1ccnc(C[S+]([O-])c2nc3ccc(OC(F)F)cc3[nH]2)c1OC` (stereo unspecified) [PANTOPRAZOLE] returned an AC50 of more than 10 µM.

As to `CNC(=O)c1cc(Oc2ccc(NC(=O)Nc3ccc(Cl)c(C(F)(F)F)c3)c(F)c2)ccn1` [REGORAFENIB], the concentration at half-maximal activity (AC50) in test [1], in test [2], in test [3], in test [4], in test [5] and in test [6] was more than 30 µM each time. In test [7], this compound registered an AC50 of 9 µM.

Take `CCOc1cc(CC(=O)N[C@@H](CC(C)C)c2ccccc2N2CCCCC2)ccc1C(=O)O` [REPAGLINIDE]: the AC50 in test [1], in test [2], in test [3], in test [4], in test [5] and in test [6] was more than 30 µM throughout. Besides, the AC50 in test [7] was more than 30 µM.

As for `CC(=O)S[C@@H]1CC2=CC(=O)CC[C@]2(C)[C@H]2CC[C@@]3(C)[C@@H](CC[C@@]34CCC(=O)O4)[C@H]12` [SPIRONOLACTONE], the half-maximal activity concentration (AC50) in test [8] is more than 10 µM.

For orientation: AC50 means the midpoint of the concentration-response curve, whichever way the signal moves. Higher therefore signals weaker potency.

These data come from ChEMBL document CHEMBL5291721, “A preclinical secondary pharmacology resource illuminates target-adverse drug reaction associations of marketed drugs” (Nat Commun, 2023).
